Laboratory results as given in patent US20070049564A1 (Wyeth, priority 2005, published 2007).
In brackets after ≈: the same amount, converted by molar mass. Where two headings read alike, the source gives them in different places.

How the values were obtained:
[1] = system: E. coli GC 2231; experiment: MIC, broth microdilution
[2] = system: E. coli GC 2232; experiment: MIC, broth microdilution
[3] = system: E. coli GC 2234; experiment: MIC, broth microdilution; conditions: Escherichia coli, GC2234, E. coli GC 2234
[4] = system: E. coli GC 2272; experiment: MIC, broth microdilution
[5] = system: E. coli GC 3226; experiment: MIC, broth microdilution
[6] = system: S. typhimurium GC 2172; experiment: MIC, broth microdilution; conditions: Salmonella enterica, TYPHIMURIUM
[7] = system: S. aureus GC 1131; experiment: MIC, broth microdilution
[8] = system: S. aureus GC 6466; experiment: MIC, broth microdilution; conditions: Staphylococcus aureus
[9] = system: S. aureus GC 1079; experiment: MIC, broth microdilution
[10] = system: S. aureus GC 2216; experiment: MIC, broth microdilution
[11] = system: S. aureus GC 6335; experiment: MIC, broth microdilution
[12] = system: S. epidermidis GC 4935; experiment: MIC, broth microdilution
[13] = system: E. faecalis GC 2267; experiment: MIC, broth microdilution
[14] = system: E. faecium GC 4556; experiment: MIC, broth microdilution; conditions: Enterococcus faecium
[15] = system: E. faecium GC 2243; experiment: MIC, broth microdilution
[16] = system: S. pneumoniae* GC 4465; experiment: MIC, broth microdilution; conditions: Streptococcus pneumoniae
[17] = system: S. pneumoniae+ GC 4465; experiment: MIC, broth microdilution
[18] = system: S. pyogenes GC 4563; experiment: MIC, broth microdilution
[19] = system: c. albicans GC 3066; experiment: MIC, broth microdilution
[20] = system: Staph. aureus Smith; experiment: In vivo activity (oral, iv; ED50) against Staph. aureus Smith in mice
Description: Representative examples of compounds of Formula I were tested for the oral efficacy using S. aureus Smith in mice.

## CCCN(CC(=O)Nc1cc(N(C)C)c2c(c1O)C(=O)C1=C(O)[C@]3(O)C(=O)C(C(N)=O)=C(O)[C@@H](N(C)C)[C@@H]3C[C@@H]1C2)C(=O)OCC [Example 15, ethyl 2-{[(5aR,6aS,7S,10aS)-9-(aminocarbonyl)-4,7-bis(dimethylamino)-1,8,10a,11-tetrahydroxy-10,12-dioxo-5,5a,6,6a,7,10,10a,12-octahydrotetracen-2-yl]amino}-2-oxoethyl(propyl)carbamate]
[1]; Escherichia coli, GC2231, E. coli GC 2231, Mouse Serum pre-incubation
  MIC: > 64 µg/mL
[1]; Escherichia coli, GC2231, E. coli GC 2231, Water pre-incubation
  MIC: > 64 µg/mL
[2]; Escherichia coli, GC2232, E. coli GC 2232, Mouse Serum pre-incubation
  MIC: > 64 µg/mL
[2]; Escherichia coli, GC2232, E. coli GC 2232, Water pre-incubation
  MIC: > 64 µg/mL
[3]; Mouse Serum pre-incubation
  MIC: > 64 µg/mL
[3]; Water pre-incubation
  MIC: > 64 µg/mL
[4]; Escherichia coli, GC2272, E. coli GC 2272, Mouse Serum pre-incubation
  MIC: > 64 µg/mL
[4]; Escherichia coli, GC2272, E. coli GC 2272, Water pre-incubation
  MIC: > 64 µg/mL
[5]; Escherichia coli, GC3226, E. coli GC 3226, Mouse Serum pre-incubation
  MIC: > 64 µg/mL
[5]; Escherichia coli, GC3226, E. coli GC 3226, Water pre-incubation
  MIC: > 64 µg/mL
[6]; S. typhimurium GC 2172, Mouse Serum pre-incubation
  MIC: > 64 µg/mL
[6]; S. typhimurium GC 2172, Water pre-incubation
  MIC: > 64 µg/mL
[7]; Staphylococcus aureus, GC1131, S. aureus GC 1131, Mouse Serum pre-incubation
  MIC: 2 µg/mL (≈ 3.11 µM)
[7]; Staphylococcus aureus, GC1131, S. aureus GC 1131, Water pre-incubation
  MIC: 4 µg/mL (≈ 6.21 µM)
[8]; GC6466, S. aureus GC 6466, Mouse Serum pre-incubation
  MIC: 2 µg/mL (≈ 3.11 µM)
[8]; GC6466, S. aureus GC 6466, Water pre-incubation
  MIC: 4 µg/mL (≈ 6.21 µM)
[9]; Staphylococcus aureus, GC1079, S. aureus GC 1079, Mouse Serum pre-incubation
  MIC: 2 µg/mL (≈ 3.11 µM)
[9]; Staphylococcus aureus, GC1079, S. aureus GC 1079, Water pre-incubation
  MIC: 4 µg/mL (≈ 6.21 µM)
[10]; Staphylococcus aureus, GC2216, S. aureus GC 2216, Mouse Serum pre-incubation
  MIC: 2 µg/mL (≈ 3.11 µM)
[10]; Staphylococcus aureus, GC2216, S. aureus GC 2216, Water pre-incubation
  MIC: 4 µg/mL (≈ 6.21 µM)
[11]; Staphylococcus aureus, GC6335, S. aureus GC 6335, Mouse Serum pre-incubation
  MIC: 4 µg/mL (≈ 6.21 µM)
[11]; Staphylococcus aureus, GC6335, S. aureus GC 6335, Water pre-incubation
  MIC: 4 µg/mL (≈ 6.21 µM)
[12]; Staphylococcus epidermidis, GC4935, S. epidermidis GC 4935, Mouse Serum pre-incubation
  MIC: 16 µg/mL (≈ 24.9 µM)
[12]; Staphylococcus epidermidis, GC4935, S. epidermidis GC 4935, Water pre-incubation
  MIC: 16 µg/mL (≈ 24.9 µM)
[13]; Enterococcus faecalis, GC2267, E. faecalis GC 2267, Mouse Serum pre-incubation
  MIC: 8 µg/mL (≈ 12.4 µM)
[13]; Enterococcus faecalis, GC2267, E. faecalis GC 2267, Water pre-incubation
  MIC: 8 µg/mL (≈ 12.4 µM)
[14]; GC4556, E. faecium GC 4556, Mouse Serum pre-incubation
  MIC: 8 µg/mL (≈ 12.4 µM)
[14]; GC4556, E. faecium GC 4556, Water pre-incubation
  MIC: 8 µg/mL (≈ 12.4 µM)
[15]; Enterococcus faecium, GC2243, E. faecium GC 2243, Mouse Serum pre-incubation
  MIC: 8 µg/mL (≈ 12.4 µM)
[15]; Enterococcus faecium, GC2243, E. faecium GC 2243, Water pre-incubation
  MIC: 8 µg/mL (≈ 12.4 µM)
[16]; S. pneumoniae* GC 4465, Mouse Serum pre-incubation
  MIC: 2 µg/mL (≈ 3.11 µM)
[16]; S. pneumoniae* GC 4465, Water pre-incubation
  MIC: 2 µg/mL (≈ 3.11 µM)
[17]; Streptococcus pneumoniae, S. pneumoniae+ GC 4465, Mouse Serum pre-incubation
  MIC: 4 µg/mL (≈ 6.21 µM)
[17]; Streptococcus pneumoniae, S. pneumoniae+ GC 4465, Water pre-incubation
  MIC: 4 µg/mL (≈ 6.21 µM)
[18]; Streptococcus pyogenes, GC4563, S. pyogenes GC 4563, Mouse Serum pre-incubation
  MIC: 2 µg/mL (≈ 3.11 µM)
[18]; Streptococcus pyogenes, GC4563, S. pyogenes GC 4563, Water pre-incubation
  MIC: 2 µg/mL (≈ 3.11 µM)
[19]; Candida albicans, GC3066
  MIC: > 64 µg/mL
[19]; c. albicans GC 3066, Water pre-incubation
  MIC: >64 UG/ML

## CCCCN(CC(=O)Nc1cc(N(C)C)c2c(c1O)C(=O)C1=C(O)[C@]3(O)C(=O)C(C(N)=O)=C(O)[C@@H](N(C)C)C3CC1C2)C(=O)OCc1oc(=O)oc1C (stereo partly drawn) [Example 109, (5-methyl-2-oxo-1,3-dioxol-4-yl)methyl 2-{[(7S,10aS)-9-(aminocarbonyl)-4,7-bis(dimethylamino)-1,8,10a,11-tetrahydroxy-10,12-dioxo-5,5a,6,6a,7,10,10a,12-octahydrotetracen-2-yl]amino}-2-oxoethyl(butyl)carbamate]
[1]; Escherichia coli, GC2231, pre-incubation in mouse serum
  MIC: 0.5 µg/mL (≈ 0.674 µM)
[1]; Escherichia coli, GC2231, pre-incubation in water
  MIC: 1 µg/mL (≈ 1.35 µM)
[1]; pre-incubation in mouse serum
  MIC: 1 UG/ML
[1]; pre-incubation in water
  MIC: 2 UG/ML
[2]; Escherichia coli, GC2232, pre-incubation in mouse serum
  MIC: 0.5 µg/mL (≈ 0.674 µM)
[2]; Escherichia coli, GC2232, pre-incubation in water
  MIC: 1 µg/mL (≈ 1.35 µM)
[2]; pre-incubation in water
  MIC: 2 UG/ML
[4]; Escherichia coli, GC2272, pre-incubation in mouse serum
  MIC: 0.25 µg/mL (≈ 0.337 µM)
[4]; pre-incubation in mouse serum
  MIC: 0.50 UG/ML
[5]; Escherichia coli, GC3226, pre-incubation in mouse serum
  MIC: 0.5 µg/mL (≈ 0.674 µM)
[5]; pre-incubation in mouse serum
  MIC: 1 UG/ML
[6]; pre-incubation in mouse serum
  MIC: 4 µg/mL (≈ 5.39 µM)
[6]; pre-incubation in water
  MIC: 16 µg/mL (≈ 21.6 µM)
[7]; Staphylococcus aureus, GC1131, pre-incubation in mouse serum
  MIC: 1 µg/mL (≈ 1.35 µM)
[7]; Staphylococcus aureus, GC1131, pre-incubation in water
  MIC: 2 µg/mL (≈ 2.7 µM)
[7]; pre-incubation in water
  MIC: 4 UG/ML
[8]; GC6466, pre-incubation in mouse serum
  MIC: 0.5 µg/mL (≈ 0.674 µM)
[9]; Staphylococcus aureus, GC1079, pre-incubation in mouse serum
  MIC: 2 µg/mL (≈ 2.7 µM)
[9]; Staphylococcus aureus, GC1079, pre-incubation in water
  MIC: 4 µg/mL (≈ 5.39 µM)
[9]; pre-incubation in water
  MIC: 8 UG/ML
[10]; Staphylococcus aureus, GC2216, pre-incubation in mouse serum
  MIC: 1 µg/mL (≈ 1.35 µM)
[10]; pre-incubation in mouse serum
  MIC: 0.50 UG/ML
[11]; Staphylococcus aureus, GC6335, pre-incubation in mouse serum
  MIC: 2 µg/mL (≈ 2.7 µM)
[11]; Staphylococcus aureus, GC6335, pre-incubation in water
  MIC: 4 µg/mL (≈ 5.39 µM)
[11]; pre-incubation in mouse serum
  MIC: 1 UG/ML
[12]; Staphylococcus epidermidis, GC4935, pre-incubation in mouse serum
  MIC: 2 µg/mL (≈ 2.7 µM)
[12]; Staphylococcus epidermidis, GC4935, pre-incubation in water
  MIC: 4 µg/mL (≈ 5.39 µM)
[12]; pre-incubation in water
  MIC: 8 UG/ML
[13]; Enterococcus faecalis, GC2267, pre-incubation in mouse serum
  MIC: 1 µg/mL (≈ 1.35 µM)
[13]; Enterococcus faecalis, GC2267, pre-incubation in water
  MIC: 2 µg/mL (≈ 2.7 µM)
[13]; pre-incubation in water
  MIC: 4 UG/ML
[14]; GC4556, pre-incubation in mouse serum
  MIC: 1 µg/mL (≈ 1.35 µM)
[14]; GC4556, pre-incubation in water
  MIC: 2 µg/mL (≈ 2.7 µM)
[15]; Enterococcus faecium, GC2243, pre-incubation in mouse serum
  MIC: 0.5 µg/mL (≈ 0.674 µM)
[15]; Enterococcus faecium, GC2243, pre-incubation in water
  MIC: 0.5 µg/mL (≈ 0.674 µM)
[15]; pre-incubation in water
  MIC: 1 UG/ML
[16]; pre-incubation in mouse serum
  MIC: < 0.06 µg/mL
[17]; Streptococcus pneumoniae, pre-incubation in mouse serum
  MIC: 1 µg/mL (≈ 1.35 µM)
[17]; Streptococcus pneumoniae, pre-incubation in water
  MIC: 1 µg/mL (≈ 1.35 µM)
[17]; pre-incubation in water
  MIC: 2 UG/ML
[18]; Streptococcus pyogenes, GC4563, pre-incubation in mouse serum
  MIC: < 0.06 µg/mL
[18]; pre-incubation in mouse serum
  MIC: 0.12 UG/ML
[19]; Candida albicans, GC3066
  MIC: > 64 µg/mL
[19]; pre-incubation in water
  MIC: >64 UG/ML
[20]; Staphylococcus aureus, in Mus musculus, po, read-out: ED50 Staph Smith SOD
  ED50: 19.9 mg/kg
[20]; iv, read-out: ED50 Staph Smith SIV
  ED50: 0.76 mg/kg
